Laboratory results reported in the CheMixHub drug solubility set.

Assay: xn = mol fraction of the nth substance listed, in the solute-free solvent

O=c1[nH]cc(F)c(=O)[nH]1 + O + C1CCOC1
solubility (g/100 g solution)
Conditions	283.15 K	288.15 K	293.15 K	298.15 K	303.15 K	308.15 K	313.15 K	318.15 K	323.15 K
x2 = 0.5001	0.119	0.145	0.171	0.198	0.236	0.281	0.337	0.424	0.513
x2 = 0.7273	0.219	0.264	0.307	0.36	0.423	0.498	0.61	0.721	0.868
x2 = 0.8572	0.382	0.44	0.504	0.585	0.675	0.811	0.97	1.08	1.3
x2 = 0.9412	0.615	0.702	0.795	0.91	1.05	1.22	1.45	1.74	1.93
